Experiments:
Conditions in all cases: banded MIC grade
A. terreus 49 = test: Minimum inhibitory concentration, YAG medium; type: cell-based, Aspergillus terreus
Summary of the method: (§1)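 Twofold aqueous dilution series, prepared from a DMSO stock (5 mg/mL), were inoculated with Aspergillus spp. spores; incubation lasted 24 hrs at 35° C before OD 485 nm readings.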

Aspergillus terreus = test: Minimum inhibitory concentration, YAG medium; type: cell-based
Summary of the method: as §1

Aspergillus flavus = test: Minimum inhibitory concentration, YAG medium; type: cell-based
Summary of the method: as §1

Aspergillus niger = test: Minimum inhibitory concentration, YAG medium; type: cell-based
Summary of the method: as §1

A. fumigatus 210 = test: Minimum inhibitory concentration, YAG medium; type: cell-based, Aspergillus fumigatus
Summary of the method: (§2)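 MIC, in mg/L, defined as the lowest drug level inhibiting growth by >70% relative to drug-free wells, judged by OD 485 nm after 24 hrs at 35° C. Spores (1-2×10^4 cfu/mL) were grown in YAG medium against doubling dilutions, usually 50-0.05 mg/L, repeated at 0.5-0.0005 mg/L where needed.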

Aspergillus fumigatus = test: Minimum inhibitory concentration, YAG medium; type: cell-based
Summary of the method: as §2

C. parapsilosis = test: Minimum inhibitory concentration, RPMI medium; type: cell-based
Summary of the method: (§3)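 Incubated at 35° C for 24-48 hrs in RPMI 1640 with twofold water dilutions of compound (from 5 mg/mL stock in DMSO); absorbance at 485 nm indicated growth.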

C. albicans = test: Minimum inhibitory concentration, RPMI medium; type: cell-based
Summary of the method: as §3

C. tropicalis = test: Minimum inhibitory concentration, RPMI medium; type: cell-based
Summary of the method: as §3

NC1=NN=C(CCCCc2ccccc2)CS1
MIC grade, A. TERREUS 49, YAG media (A. terreus 49): 4 (4: <0.2 mg/L)
MIC grade, A. TERREUS, YAG media (Aspergillus terreus): 4 (4: <0.2 mg/L)
MIC grade, A. FLAVUS, YAG media (Aspergillus flavus): 4 (4: <0.2 mg/L)
MIC grade, A. NIGER, YAG media (Aspergillus niger): 4 (4: <0.2 mg/L)
MIC grade, A. FUMIGATUS 210, YAG media (A. fumigatus 210): 4 (4: <0.2 mg/L)
MIC grade, A. FUMIGATUS, YAG media (Aspergillus fumigatus): 4 (4: <0.2 mg/L)
MIC grade, C. PARAPSILOSIS, RPMI media (C. parapsilosis): 4 (4: <1 mg/L)
MIC grade, C. ALBICANS, RPMI media (C. albicans): 2 (2: 5-20 mg/L)
MIC grade, C. TROPICALIS, RPMI media (C. tropicalis): 2 (2: 5-20 mg/L)

CCCc1ccc(C2=NN=C(N)SC2)cc1
MIC grade, A. TERREUS 49, YAG media (A. terreus 49): 3 (3: 0.2-1 mg/L)
MIC grade, A. TERREUS, YAG media (Aspergillus terreus): 3 (3: 0.2-1 mg/L)
MIC grade, A. FLAVUS, YAG media (Aspergillus flavus): 2 (2: 1-5 mg/L)
MIC grade, A. NIGER, YAG media (Aspergillus niger): 2 (2: 1-5 mg/L)
MIC grade, A. FUMIGATUS 210, YAG media (A. fumigatus 210): 3 (3: 0.2-1 mg/L)
MIC grade, A. FUMIGATUS, YAG media (Aspergillus fumigatus): 3 (3: 0.2-1 mg/L)
MIC grade, C. PARAPSILOSIS, RPMI media (C. parapsilosis): 1 (1: ≥20 mg/L)
MIC grade, C. ALBICANS, RPMI media (C. albicans): 1 (1: ≥20 mg/L)
MIC grade, C. TROPICALIS, RPMI media (C. tropicalis): 1 (1: ≥20 mg/L)

NC1=NN=C(CCCCCOc2ccccc2)CS1
MIC grade, A. TERREUS 49, YAG media (A. terreus 49): 4 (4: <0.2 mg/L)
MIC grade, A. TERREUS, YAG media (Aspergillus terreus): 4 (4: <0.2 mg/L)
MIC grade, A. FLAVUS, YAG media (Aspergillus flavus): 4 (4: <0.2 mg/L)
MIC grade, A. NIGER, YAG media (Aspergillus niger): 4 (4: <0.2 mg/L)
MIC grade, A. FUMIGATUS 210, YAG media (A. fumigatus 210): 4 (4: <0.2 mg/L)
MIC grade, A. FUMIGATUS, YAG media (Aspergillus fumigatus): 4 (4: <0.2 mg/L)
MIC grade, C. PARAPSILOSIS, RPMI media (C. parapsilosis): 4 (4: <1 mg/L)
MIC grade, C. ALBICANS, RPMI media (C. albicans): 4 (4: <1 mg/L)
MIC grade, C. TROPICALIS, RPMI media (C. tropicalis): 4 (4: <1 mg/L)

NC1=NN=C2c3ccccc3CCC2S1 (stereo not drawn)
MIC grade, A. TERREUS 49, YAG media (A. terreus 49): 2 (2: 1-5 mg/L)
MIC grade, A. TERREUS, YAG media (Aspergillus terreus): 1 (1: ≥5 mg/L)
MIC grade, A. FLAVUS, YAG media (Aspergillus flavus): 1 (1: ≥5 mg/L)
MIC grade, A. NIGER, YAG media (Aspergillus niger): 1 (1: ≥5 mg/L)
MIC grade, A. FUMIGATUS 210, YAG media (A. fumigatus 210): 1 (1: ≥5 mg/L)
MIC grade, A. FUMIGATUS, YAG media (Aspergillus fumigatus): 2 (2: 1-5 mg/L)
MIC grade, C. PARAPSILOSIS, RPMI media (C. parapsilosis): 1 (1: ≥20 mg/L)
MIC grade, C. ALBICANS, RPMI media (C. albicans): 1 (1: ≥20 mg/L)
MIC grade, C. TROPICALIS, RPMI media (C. tropicalis): 1 (1: ≥20 mg/L)

NC1=NNC2=C(CCCC2)S1
MIC grade, A. TERREUS 49, YAG media (A. terreus 49): 2 (2: 1-5 mg/L)
MIC grade, A. TERREUS, YAG media (Aspergillus terreus): 2 (2: 1-5 mg/L)
MIC grade, A. FLAVUS, YAG media (Aspergillus flavus): 1 (1: ≥5 mg/L)
MIC grade, A. NIGER, YAG media (Aspergillus niger): 2 (2: 1-5 mg/L)
MIC grade, A. FUMIGATUS 210, YAG media (A. fumigatus 210): 3 (3: 0.2-1 mg/L)
MIC grade, A. FUMIGATUS, YAG media (Aspergillus fumigatus): 2 (2: 1-5 mg/L)
MIC grade, C. PARAPSILOSIS, RPMI media (C. parapsilosis): 1 (1: ≥20 mg/L)
MIC grade, C. ALBICANS, RPMI media (C. albicans): 1 (1: ≥20 mg/L)
MIC grade, C. TROPICALIS, RPMI media (C. tropicalis): 1 (1: ≥20 mg/L)

CCCCOC1CCC2=NN=C(N)SC2C1 (stereo not drawn)
MIC grade, A. TERREUS 49, YAG media (A. terreus 49): 2 (2: 1-5 mg/L)
MIC grade, A. TERREUS, YAG media (Aspergillus terreus): 2 (2: 1-5 mg/L)
MIC grade, A. FLAVUS, YAG media (Aspergillus flavus): 2 (2: 1-5 mg/L)
MIC grade, A. NIGER, YAG media (Aspergillus niger): 2 (2: 1-5 mg/L)
MIC grade, A. FUMIGATUS 210, YAG media (A. fumigatus 210): 3 (3: 0.2-1 mg/L)
MIC grade, A. FUMIGATUS, YAG media (Aspergillus fumigatus): 1 (1: ≥5 mg/L)
MIC grade, C. PARAPSILOSIS, RPMI media (C. parapsilosis): 1 (1: ≥20 mg/L)
MIC grade, C. ALBICANS, RPMI media (C. albicans): 1 (1: ≥20 mg/L)
MIC grade, C. TROPICALIS, RPMI media (C. tropicalis): 1 (1: ≥20 mg/L)

CCC(=O)OCC1=NN=C(N)SC1
MIC grade, A. TERREUS 49, YAG media (A. terreus 49): 3 (3: 0.2-1 mg/L)
MIC grade, A. TERREUS, YAG media (Aspergillus terreus): 3 (3: 0.2-1 mg/L)
MIC grade, A. FLAVUS, YAG media (Aspergillus flavus): 3 (3: 0.2-1 mg/L)
MIC grade, A. NIGER, YAG media (Aspergillus niger): 3 (3: 0.2-1 mg/L)
MIC grade, A. FUMIGATUS 210, YAG media (A. fumigatus 210): 3 (3: 0.2-1 mg/L)
MIC grade, A. FUMIGATUS, YAG media (Aspergillus fumigatus): 3 (3: 0.2-1 mg/L)
MIC grade, C. PARAPSILOSIS, RPMI media (C. parapsilosis): 3 (3: 1-5 mg/L)
MIC grade, C. ALBICANS, RPMI media (C. albicans): 1 (1: ≥20 mg/L)
MIC grade, C. TROPICALIS, RPMI media (C. tropicalis): 2 (2: 5-20 mg/L)

NC1=NN=C(CC(=O)OCc2ccccc2)CS1
MIC grade, A. TERREUS 49, YAG media (A. terreus 49): 2 (2: 1-5 mg/L)
MIC grade, A. TERREUS, YAG media (Aspergillus terreus): 2 (2: 1-5 mg/L)
MIC grade, A. FLAVUS, YAG media (Aspergillus flavus): 1 (1: ≥5 mg/L)
MIC grade, A. NIGER, YAG media (Aspergillus niger): 2 (2: 1-5 mg/L)
MIC grade, A. FUMIGATUS 210, YAG media (A. fumigatus 210): 1 (1: ≥5 mg/L)
MIC grade, A. FUMIGATUS, YAG media (Aspergillus fumigatus): 1 (1: ≥5 mg/L)
MIC grade, C. PARAPSILOSIS, RPMI media (C. parapsilosis): 2 (2: 5-20 mg/L)
MIC grade, C. ALBICANS, RPMI media (C. albicans): 1 (1: ≥20 mg/L)
MIC grade, C. TROPICALIS, RPMI media (C. tropicalis): 1 (1: ≥20 mg/L)

CCCCOC(=O)CC1=NN=C(N)SC1
MIC grade, A. TERREUS 49, YAG media (A. terreus 49): 3 (3: 0.2-1 mg/L)
MIC grade, A. TERREUS, YAG media (Aspergillus terreus): 2 (2: 1-5 mg/L)
MIC grade, A. FLAVUS, YAG media (Aspergillus flavus): 2 (2: 1-5 mg/L)
MIC grade, A. NIGER, YAG media (Aspergillus niger): 3 (3: 0.2-1 mg/L)
MIC grade, A. FUMIGATUS 210, YAG media (A. fumigatus 210): 3 (3: 0.2-1 mg/L)
MIC grade, A. FUMIGATUS, YAG media (Aspergillus fumigatus): 2 (2: 1-5 mg/L)
MIC grade, C. PARAPSILOSIS, RPMI media (C. parapsilosis): 3 (3: 1-5 mg/L)
MIC grade, C. ALBICANS, RPMI media (C. albicans): 1 (1: ≥20 mg/L)
MIC grade, C. TROPICALIS, RPMI media (C. tropicalis): 1 (1: ≥20 mg/L)

COC(=O)CC1=NN=C(N)SC1
MIC grade, A. TERREUS 49, YAG media (A. terreus 49): 2 (2: 1-5 mg/L)
MIC grade, A. TERREUS, YAG media (Aspergillus terreus): 2 (2: 1-5 mg/L)
MIC grade, A. FLAVUS, YAG media (Aspergillus flavus): 2 (2: 1-5 mg/L)
MIC grade, A. NIGER, YAG media (Aspergillus niger): 2 (2: 1-5 mg/L)
MIC grade, A. FUMIGATUS 210, YAG media (A. fumigatus 210): 2 (2: 1-5 mg/L)
MIC grade, A. FUMIGATUS, YAG media (Aspergillus fumigatus): 2 (2: 1-5 mg/L)
MIC grade, C. PARAPSILOSIS, RPMI media (C. parapsilosis): 2 (2: 5-20 mg/L)
MIC grade, C. ALBICANS, RPMI media (C. albicans): 1 (1: ≥20 mg/L)
MIC grade, C. TROPICALIS, RPMI media (C. tropicalis): 1 (1: ≥20 mg/L)

Reference: US20180201592A1, “2-AMINO-1,3,4-THIADIAZINE AND 2-AMINO-1,3,4-OXADIAZINE BASED ANTIFUNGAL AGENTS” (F2G Limited, priority 2015, published 2018)
